Experiments:
oxaliplatin-treated rats [1] = test: acetone test for cold hyperalgesia in oxaliplatin-treated rats; format: in vivo, rat; conditions: oxaliplatin 4 mg/kg i.p. twice weekly; 4, 6 and 8 wks; vs naïve control
Method: (§1) To establish the oxaliplatin-induced chronic neuropathy rat model, oxaliplatin (4 mg/mL/kg) or its vehicle (5% glucose solution) was injected intraperitoneally twice weekly for 8 wks. Rats were orally administered GJG (0.3 or 1.0 g/10 mL/kg) or DW 5 times a week for 8 wks.
(§2) Cold hyperalgesia induced by oxaliplatin was assessed by an acetone test[10]. The acetone test was done on days 24, 38 and 52. Briefly, 250 μL of acetone (Wako Pure Chemical Ltd., Osaka, Japan) was sprayed onto the plantar skin of the right hind paw, and the time spent in elevation and licking of the stimulated hind paw for 60 seconds was measured. Acetone was applied twice at a 15-minute interval, and the average withdrawal response time was calculated. A hot plate test was performed for assessment of thermal hyperalgesia on days 25, 39 and 54. Rats were placed in a Hot/Cold Plate Analgesia Meter (MK-350HC; Muromachi Kikai Co., Ltd., Tokyo, Japan) that kept the temperature of the plate at 50 °C. A cut-off time of 45 seconds was set to prevent tissue damage. The latency of withdrawal response, such as licking and flinching of each hind paw, was recorded.

rat sciatic nerve = test: histological analysis of the sciatic nerve (electron microscopy, ratio of degenerated myelinated fibers); format: in vivo; conditions: oxaliplatin-treated group; 8 wks; n = 3
Method: as §1
The rats were deeply anesthetized with pentobarbital (50 mg/kg), and transcardially perfused with phosphate-buffered saline (pH 7.4), followed by 2.5% phosphate-buffered glutaraldehyde. The sciatic nerves were rapidly dissected, and the samples were kept overnight in the same fixative at 4 °C. The fixed fibers were post-fixed with 1% osmium tetroxide solution for 3 hours, dehydrated in a graded alcohol series, and embedded in Epon815. For light microscopy, semi-thin sections were cut from each block and stained with toluidine blue. The stained sections were observed using a light microscope (BX60, Olympus Corp., Tokyo, Japan). For electron microscopy, ultra-thin sections were cut and stained with uranyl acetate and lead citrate. […] The numbers of normal- and degenerated-myelinated nerve fibers were counted in the area of 0.05 mm^2 (0.01 mm^2 × 5 areas), and the ratio of degenerated nerve fibers was calculated as the percentage of total nerve fibers in each group. In this study, the pathological experts who investigate myelination or demyelination analyzed light and electron microscopy in detail.

oxaliplatin-treated rats [2] = test: hot plate test for heat hypoalgesia in oxaliplatin-treated rats; format: in vivo, rat
Method: as §1, §2

[3] = platinum concentration in dorsal root ganglia (ICP-MS); format: in vivo, rat; conditions: oxaliplatin 4 mg/kg i.p. twice a week; 4 and 8 wks
Method: Lumbar L4-L6 DRG were isolated from each group on days 26 and 54 after oxaliplatin treatment. The tissue samples were pretreated by heating in an acid solution, and the tissue platinum concentration was analyzed using an ICP-MS system (Agilent 7700s; Agilent Technologies, Inc., Santa Clara, CA, USA). The lower limit for quantification of platinum in tissue was 2.0 ng.

oxaliplatin-treated rats [4] = test: peripheral blood flow by two-dimensional laser speckle Blood Flow Imager; format: in vivo, rat; conditions: for peripheral blood flow, Head / peripheral blood flow, Left ear / peripheral blood flow, Left forelimb / peripheral blood flow, Left hindlimb / peripheral blood flow, Right ear / peripheral blood flow, Right forelimb / peripheral blood flow, Right hindlimb / peripheral blood flow, Tail: ratio to naïve rats
Method: as §1
Peripheral blood flow was measured using a two-dimensional laser speckle Blood Flow Imager (Omegazone OZ-2; Omegawave, Inc., Tokyo, Japan). Rats were anesthetized with isoflurane for induction and urethane intraperitoneally for maintenance. Body temperature was maintained at 37.5 ± 0.5 °C using a heating pad. Blood pressure and heart rate were concurrently measured by a tail-cuff apparatus (BP-98A-L; Softron, Tokyo, Japan). Peripheral blood flow in the head, ears, forelimbs, hindlimbs and tail of rats was measured at four defined time points (day 3, 10, 26 and 54). Values were analyzed by analysis software (LIA-V210, Softron). Real image and color-coded images were obtained in high-resolution mode (639 × 480 pixels; 2 images/second). The blood flow value in each peripheral site is expressed as mean blood flow in the region of interest (ROI). The ratio of blood flow rate of treated animals to naïve animals was calculated (%).

oxaliplatin-treated rats [5] = test: rotarod test of motor coordination; format: in vivo, rat; conditions: 8 wks; among the tested groups
Method: as §1
(§3) A rotarod test was carried out on day 57 to evaluate if chronic treatment of oxaliplatin had any effect on motor coordination. Rats were placed on the rotarod (SN-497; Shinano-Seisakusho Ltd., Tokyo, Japan), which is a horizontal rod 10 cm diameter, with their heads directed against the direction of rotation at 5 rpm. The time that the animal stayed on the rod (up to maximum of 120 seconds) was recorded. A wire hang test was performed for assessment of neuromuscular strength on day 53. Animals were placed on the wire net that was held horizontally. The wire screen was first inclined at 90 ° for 20 seconds, then turned to 180 ° for a further 20 seconds. The latency to fall from the wire net inclined at the respective angles was recorded.

oxaliplatin-treated rats [6] = test: wire hang test of neuromuscular strength; format: in vivo, rat; conditions: wire screen inclined to 90° or 180° for 20 seconds; among groups
Method: as §1, §3

[7] = set-up: method as in PMID 11223836; conditions: rats, 5 mg/kg oxaliplatin intraperitoneally; cited from earlier work
neuro2A cells = conditions: oxaliplatin 30–300 μM, 1 hour
Method: Mouse neuroblastoma Neuro2A cells (ATCC-CCL 131) were grown in Dulbecco’s MEM (Life Technologies) containing 10% fetal bovine serum with 100 units/mL penicillin and 100 mg/mL streptomycin (Life Technologies). The cells were maintained at 37 °C in a humidified atmosphere with 5% CO2 and 95% air. For measurement of ROS generation, the cells were seeded at 2.0 × 10^4 cells/well in poly-D-lysine-coated 96-well plates (BD Falcon, Franklin Lakes, NJ, USA). After plating, the cells were maintained in Dulbecco’s MEM (without phenol red or serum, Life Technologies) with 100 units/mL penicillin and 100 mg/mL streptomycin for more than 16 hours until subsequent experiments. Intracellular ROS generation caused by oxaliplatin in neuro2A cells was determined using CM-H2DCFDA. […] The cells were incubated for 30 minutes with 10 μM CM-H2DCFDA at 37 °C, followed by treatment of drugs for 1 hour. Fluorescence intensity was measured using a microplate reader (Infinite M200; Tecan Japan Co., Ltd., Kanagawa, Japan) at 485 nm (excitation) /520 nm (emission).

[8] = day 3, L-OHP 4 mg/kg i.p. twice weekly
[9] = day 10, L-OHP 4 mg/kg i.p. twice weekly

O=C1[O][Pt]2([NH][C@@H]3CCCC[C@H]3[NH]2)[O]C1=O [oxaliplatin]
duration of withdrawal responses to cold stimulation by acetone (oxaliplatin-treated rats [1]): significantly increased
ratio of degenerated axons in total myelinated nerve fibers (rat sciatic nerve): 8.8 ± 2.4%
latency of withdrawal to heat stimulation (hot plate) (oxaliplatin-treated rats [2]; 4 wks after oxaliplatin treatment, among all groups): no significant difference
latency of withdrawal to heat stimulation (hot plate) (oxaliplatin-treated rats [2]; oxaliplatin vs naïve control, 6 wks (p < 0.05) and 8 wks (p < 0.01)): gradually increased
platinum accumulation in the rat DRG [3]: directly correlated with the duration of oxaliplatin treatment
peripheral blood flow, Head (oxaliplatin-treated rats [4]; 4 weeks, L-OHP + DW): 89.9 ± 2.6 %
peripheral blood flow, Left ear (oxaliplatin-treated rats [4]; 4 weeks, L-OHP + DW): 95.7 ± 2.9%
peripheral blood flow, Left forelimb (oxaliplatin-treated rats [4]; 4 weeks, L-OHP + DW): 87.3 ± 2.8 %
peripheral blood flow, Left hindlimb (oxaliplatin-treated rats [4]; 4 weeks, L-OHP + DW): 82.0 ± 4.5 %
peripheral blood flow, Right ear (oxaliplatin-treated rats [4]; 4 weeks, L-OHP + DW): 91.2 ± 3.4%
peripheral blood flow, Right forelimb (oxaliplatin-treated rats [4]; 4 weeks, L-OHP + DW): 89.0 ± 2.7 %
peripheral blood flow, Right hindlimb (oxaliplatin-treated rats [4]; 4 weeks, L-OHP + DW): 88.3 ± 5.1%
peripheral blood flow, Tail (oxaliplatin-treated rats [4]; 4 weeks, L-OHP + DW): 100.1 ± 2.2%
peripheral blood flow, Head (oxaliplatin-treated rats [4]; 8 weeks, L-OHP + DW): 93.5 ± 3.8%
peripheral blood flow, Left ear (oxaliplatin-treated rats [4]; 8 weeks, L-OHP + DW): 91.4 ± 3.2%
peripheral blood flow, Left forelimb (oxaliplatin-treated rats [4]; 8 weeks, L-OHP + DW): 97.2 ± 1.5%
peripheral blood flow, Left hindlimb (oxaliplatin-treated rats [4]; 8 weeks, L-OHP + DW): 95.7 ± 4.7%
peripheral blood flow, Right ear (oxaliplatin-treated rats [4]; 8 weeks, L-OHP + DW): 92.3 ± 4.1%
peripheral blood flow, Right forelimb (oxaliplatin-treated rats [4]; 8 weeks, L-OHP + DW): 100.3 ± 2.0%
peripheral blood flow, Right hindlimb (oxaliplatin-treated rats [4]; 8 weeks, L-OHP + DW): 102.3 ± 4.4%
peripheral blood flow, Tail (oxaliplatin-treated rats [4]; 8 weeks, L-OHP + DW): 96.3 ± 3.3%
peripheral blood flow, Head (oxaliplatin-treated rats [4]; [8]): 108.3 ± 2.9%
peripheral blood flow, Left ear (oxaliplatin-treated rats [4]; [8]): 104.8 ± 4.3%
peripheral blood flow, Left forelimb (oxaliplatin-treated rats [4]; [8]): 97.5 ± 3.1%
peripheral blood flow, Left hindlimb (oxaliplatin-treated rats [4]; [8]): 110.2 ± 0.9%
peripheral blood flow, Right ear (oxaliplatin-treated rats [4]; [8]): 101.5 ± 5.6%
peripheral blood flow, Right forelimb (oxaliplatin-treated rats [4]; [8]): 100.8 ± 1.9%
peripheral blood flow, Right hindlimb (oxaliplatin-treated rats [4]; [8]): 114.2 ± 2.1%
peripheral blood flow, Tail (oxaliplatin-treated rats [4]; [8]): 98.8 ± 2.5%
peripheral blood flow, Head (oxaliplatin-treated rats [4]; [9]): 91.9 ± 4.5%
peripheral blood flow, Left ear (oxaliplatin-treated rats [4]; [9]): 85.3 ± 2.2 %
peripheral blood flow, Left forelimb (oxaliplatin-treated rats [4]; [9]): 93.1 ± 3.8%
peripheral blood flow, Left hindlimb (oxaliplatin-treated rats [4]; [9]): 85.8 ± 5.0%
peripheral blood flow, Right ear (oxaliplatin-treated rats [4]; [9]): 87.7 ± 2.0 %
peripheral blood flow, Right forelimb (oxaliplatin-treated rats [4]; [9]): 91.4 ± 3.1%
peripheral blood flow, Right hindlimb (oxaliplatin-treated rats [4]; [9]): 86.5 ± 6.9%
peripheral blood flow, Tail (oxaliplatin-treated rats [4]; [9]): 90.9 ± 3.4%
mean blood flow in the fore- and hindlimbs (oxaliplatin-treated rats [4]; oxaliplatin, 4 wks): significantly decreased
motor coordination (rotarod test) (oxaliplatin-treated rats [5]): no significant differences
muscle strength (wire screen hanging test) (oxaliplatin-treated rats [6]): no significant differences
time for which maximum plasma platinum was maintained [7]: 2 h
time to maximum plasma concentration of platinum [7]: approximately 90 minutes
ROS generation in neuro2A cells (neuro2A cells): increased ROS generation
